Laboratory results reported in patent US12016860B2, “Combination therapies with Cbl-b inhibitor compounds” (Nurix Therapeutics, Inc., priority 2021, dated 2024).

Experiments:
CT26 tumors [1] = assay: CT26 tumor model with depleting antibodies for CD4+, CD8+ or NK cells; assay type: in vivo, mice; settings: 30 mg/kg PO QD Day 9 to 25
Description: Tumor volume at Day 25 is indicated. CD8+ T-cell or NK cell depletion abrogates compound 23 activity. Stats were calculated with Mann-Whitney (Vehicle vs. compound 23) or one-way ANOVA with Dunn's multiple comparisons test (compound 23 vs. Depletion groups); (*P≤0.05, **P≤0.01, ****P≤0.0001). The efficacy of compound 23 on tumors is CD8+ T function and on NK cell function.

BT549 tumor cell line = assay: Caspase 3/7 apoptosis Incucyte assay with paclitaxel, BT549; assay type: cell-based; settings: 0.1 μM compound 23, 0.002 μM paclitaxel, vs 0.05% DMSO, combination also vs single agents p<0.0001
Description: (§1) BT549 cells were seeded in duplicate into tissue culture treated black-sided, clear-bottom 96-well plates at 5,000 ^cells/well and allowed to adhere and establish for 24 h. Cells were treated with DMSO, compound 23, or Paclitaxel either alone or in combination and were labelled with 1× Essen Bioscience IncuCyte® Caspase-3/7 Green Reagent (final concentration 5 μM). Treated plates were imaged every 2 hours for 48 hours with the IncuCyte® S3 Live-Cell Analysis System. At each timepoint, one image per well was taken in both brightfield and FITC channels on the IncuCyte® S3 Live-Cell Analysis System. Images were analyzed for number of green objects per mm^2 using the IncuCyte S3 v2017A software.
Using a caspase 3/7 apoptosis Incucyte® assay, the effect of compound 23, paclitaxel and the combination of compound 23 and paclitaxel on tumor cell apoptosis was assessed in the BT549 tumor cell line (a mammary gland carcinoma) in vitro.

[2] = tested on: DoTc 4510 (BRCA2 mutated) cells; assay: Caspase 3/7 apoptosis Incucyte assay with olaparib, DoTc 4510; assay type: cell-based; settings: vs 0.05% DMSO, combination also vs single agents p<0.0001
Description: as §1, with “BT549 (BRCA wild type) (A) and DoTc 4510 (BRCA2 mutated) (B) cells were” for “BT549 cells were”, “plates at 5,000^cells/well and allowed” for “plates at 5,000 ^cells/well and allowed”, “treated with indicated concentrations of DMSO, compound” for “treated with DMSO, compound”, “23, or Olaparib (FIGS. 13A and 13B) either alone” for “23, or Paclitaxel either alone”, “hours for 72 hours with” for “hours for 48 hours with”

CT26 tumors [3] = assay: Flow cytometry of tumor-infiltrating immune cells in CT26 tumors; assay type: in vivo, mice
Description: CT26 tumors were harvested after 19 doses of compound 23 or vehicle and tumor-infiltrating immune cell density and phenotype was assessed by flow cytometry.

orthotopic 4T1 tumors = assay: Orthotopic 4T1 model, combination with anti-PD-1 antibody; assay type: in vivo, mice
Description: (§2) This example provides assays and results for treating tumor models in vivo with combinations of Cbl-b compounds and anti-PD1 antibodies as described herein. The antibody is a mouse anti-PD1 RMP1-14 antibody, useful in mouse in vivo assays as model for administration of human PD-1 axis antagonists for treatment of human cancer.
Beginning on Day 9, tumor volumes and body weights were measured twice weekly. […] Statistical significance of differences in the number of colonies between groups was evaluated using Kruskal-Wallis one-way ANOVA with Dunn's multiple comparisons test.

[4] = tested on: BT549 (BRCA wild type) cells; assay: Caspase 3/7 apoptosis Incucyte assay with olaparib, BT549; assay type: cell-based; settings: 1 μM compound 23, 0.05 μM olaparib, vs 0.05% DMSO, combination also vs single agents p<0.0001
Description: as §1, with “BT549 (BRCA wild type) (A) and DoTc 4510 (BRCA2 mutated) (B) cells were” for “BT549 cells were”, “plates at 5,000^cells/well and allowed” for “plates at 5,000 ^cells/well and allowed”, “treated with indicated concentrations of DMSO, compound” for “treated with DMSO, compound”, “23, or Olaparib (FIGS. 13A and 13B) either alone” for “23, or Paclitaxel either alone”, “hours for 72 hours with” for “hours for 48 hours with”
Using a caspase 3/7 apoptosis Incucyte assay, the effect of compound 23, PARPi and the combination of compound 23, and PARPi on tumor cell apoptosis was assessed in both BRCA wild type and mutated tumor cell lines in vitro.

MC38 tumors = assay: MC38 model, combination with anti-PD-1 antibody; assay type: in vivo, mice
Description: as §2
Beginning on Day 10, tumor volumes were measured twice weekly.

CT26 tumors [5] = assay: CT26 tumor volume in mice, single agent oral dosing; assay type: in vivo; settings: oral administration in mice; colon carcinoma model CT26
Description: Mice bearing tumors on their left and right flanks were treated from Day 7 to Day 32 with oral compound 23 at 10 mg/kg (blue circles) or 30 mg/kg (red circles) or vehicle (black squares). Volumes at Day 25 are indicated. Statistics were calculated with one-way ANOVA and Dunn's multiple comparisons test **P≤0.01.

CT26 tumors [6] = assay: CT26 model, combination with anti-PD-1 antibody; assay type: in vivo, mice
Description: as §2
FIG. 6 provides results in three tumor models. […] Beginning on Day 10, tumor volumes were measured twice weekly.

Raji cells [7] = assay: Raji model in SCID mice with NK cell depletion (anti-asialo-GM1); assay type: in vivo; settings: p<0.0001
Description: Three additional groups of mice were treated in the presence of depleting antibodies for NK cells (anti-asialo-GM1).

Raji cells [8] = assay: Raji human non-Hodgkin's lymphoma model in SCID mice, combination with rituximab
Description: Female CB17 mice with severe combined immunodeficiency (SCID) were intravenously (IV) injected in the tail vein with Raji cells on Day 0 and treated from Day 5 to Day 37 by administration of either: vehicle (0.5% methylcellulose, 0.2% Polysorbate 80 in deionized water+1 eq HCl) daily, orally (PO) or compound 23 at 30 mg/kg daily, PO. Anti-CD20 antibody (rituximab) at 20 mg/kg was intraperitoneally (IP) administered on Day 5, 10, and 15, either alone or in combination with compound 23 at 30 mg/kg daily, PO.

[9] = single agents vs vehicle, combination vs vehicle or either single agent

`C[C@H]1CCCN(Cc2cc3c(c(C(F)(F)F)c2)CN(c2cccc([C@]4(c5nncn5C)C[C@@H](C)C4)c2)C3=O)C1` [compound 23] was tested, and the “effect of CD8+ T-cell depletion on compound activity (tumor volume at Day 25)” value (CT26 tumors [1]) was “abrogates”, the “effect of NK cell depletion on compound activity (tumor volume at Day 25)” value (CT26 tumors [1]; anti-asialo-GM1) was “abrogates” and the “tumor cell apoptosis (caspase 3/7)” value (BT549 tumor cell line) was “did not undergo a significant increase in apoptosis”. For the same molecule, the “tumor cell apoptosis (caspase 3/7)” value [2] was “did not significantly increase tumor cell apoptosis”, the “CD8+ T-cells to Tregs ratio” value (CT26 tumors [3]; 19 doses) was “increased” and the “CD8+ effector T-cells (PD1+) to Tregs ratio” value (CT26 tumors [3]; 19 doses) was “increased”. The “frequency of CD8+ T-cells that express the activation marker CD29” value (CT26 tumors [3]; 19 doses) was “increased”, the “frequency of total CD3+ T-cells as a percentage of CD45+ leukocytes” value (CT26 tumors [3]; 19 doses) was “increased” and the “frequency of total CD8+ T-cells as a percentage of CD45+ leukocytes” value (CT26 tumors [3]; 19 doses) was “increased”. For the same molecule, the “frequency of tumor-infiltrating NK cells with cytotoxic phenotype (Granzyme+)” value (CT26 tumors [3]; 19 doses) was “increased”, the “number of total CD8+ T-cells per gram of tumor” value (CT26 tumors [3]; 19 doses) was “increased” and the “number of tumor-infiltrating leukocytes (TIL) per gram of tumor” value (CT26 tumors [3]; 19 doses 30 mg/kg daily PO) was “increased”. For the same molecule, the “interaction with PD-1 antibody blockade” value (orthotopic 4T1 tumors) was “synergizes”, the “metastatic lung tumor burden” value (orthotopic 4T1 tumors; lungs harvested Day 28, single agents vs vehicle, combination vs vehicle or either single agent) was “reduced metastatic lung tumor burden” and the primary tumor volume (orthotopic 4T1 tumors; [9]) was “significantly smaller primary tumors”. For the same molecule, the “tumor cell apoptosis (caspase 3/7)” value [4] was “did not undergo a significant increase in apoptosis”, the “interaction with PD-1 antibody blockade” value (MC38 tumors) was “synergizes” and the primary tumor volume (MC38 tumors; [9]) was “significantly smaller primary tumors”. For the same molecule, the anti-tumor activity (CT26 tumors [5]) was “significant anti-tumor activity”, the “interaction with PD-1 antibody blockade” value (CT26 tumors [6]) was “synergizes” and the TGI (CT26 tumors [6]; compared to vehicle controls, compound 23 30 mg/kg daily PO, anti-PD-1 10 mg/kg twice weekly IP) was 62%. The “tumor volume compared to vehicle controls” value (CT26 tumors [6]; compound 23 30 mg/kg daily PO) was “significantly reduced tumor volume”, the median survival time (CT26 tumors [6]; compound 23 30 mg/kg daily PO, anti-PD-1 10 mg/kg twice weekly IP, controls 27 days) was 38 days and the “effect of NK cell depletion on activity (survival)” value (Raji cells [7]) was “abrogates”. For the same molecule, the “survival compared to untreated mice” value (Raji cells [8]; compound 23 30 mg/kg daily PO, rituximab 20 mg/kg IP Day 5, 10, 15, p<0.0001) was “significantly higher” and the “survival compared to mice treated with the combination of compound 23 and rituximab” value (Raji cells [8]; p<0.0001) was “significantly lower”.
